Data on two compounds can be found in publication PMC11266932, “Enhanced absorption of prenylated cinnamic acid derivatives from Brazilian green propolis by turmeric in humans and rats” (Food Science & Nutrition, 2024).

For series [1], the target named is T1, breast cancer resistance protein (BCRP) (Homo sapiens, UniProt Q9UNQ0).
T1 construct: host or cells: MDCK II (Madin-Darby canine kidney) cells overexpressing BCRP
T1 sequence (Q9UNQ0 1-655): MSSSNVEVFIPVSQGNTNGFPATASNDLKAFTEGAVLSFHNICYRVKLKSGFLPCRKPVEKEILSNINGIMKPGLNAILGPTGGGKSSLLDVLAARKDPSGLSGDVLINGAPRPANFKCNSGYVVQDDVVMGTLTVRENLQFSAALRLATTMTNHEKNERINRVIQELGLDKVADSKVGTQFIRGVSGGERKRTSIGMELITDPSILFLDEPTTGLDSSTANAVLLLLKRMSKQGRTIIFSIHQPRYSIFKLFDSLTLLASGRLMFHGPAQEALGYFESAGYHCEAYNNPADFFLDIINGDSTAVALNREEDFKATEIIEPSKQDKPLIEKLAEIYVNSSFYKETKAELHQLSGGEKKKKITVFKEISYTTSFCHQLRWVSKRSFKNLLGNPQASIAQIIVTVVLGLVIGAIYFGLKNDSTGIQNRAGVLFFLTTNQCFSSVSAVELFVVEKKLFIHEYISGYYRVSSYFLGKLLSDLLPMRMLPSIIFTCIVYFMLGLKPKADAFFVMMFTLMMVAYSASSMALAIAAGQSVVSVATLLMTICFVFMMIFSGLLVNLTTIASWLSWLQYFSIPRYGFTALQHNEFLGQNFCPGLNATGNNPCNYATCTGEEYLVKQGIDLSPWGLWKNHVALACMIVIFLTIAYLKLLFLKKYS
In words: Bidirectional transport assay across MDCK II-BCRP cell monolayer. It is filed as in vitro ADME. The settings on record: for Net flux ratio: ER of MDCK II‐BCRP divided by ER of parent MDCK II, >2 = transporter-mediated efflux; for substrate of BCRP (in words): bidirectional transport assay, net flux ratio criterion. Here is the method: (§1) The Madin‐Darby canine kidney (MDCK II) cell line and MDCK II cells overexpressing multidrug resistance 1 (MDR1) or breast cancer resistance protein (BCRP) were purchased from the Netherlands Cancer Institute (Amsterdam, Netherlands) and SOLVO Biotechnology (Szeged, Hungary), respectively. The cell lines were routinely cultured in Dulbecco's modified Eagle's medium (DMEM) containing 10% fetal bovine serum and 1% penicillin/streptomycin at 37°C in 5% CO2. All cells were seeded in a feeder tray at a density of 3–6 × 10^4 cells/well and grown for 3–4 days. On the day of the transport study, cell monolayers were washed with Hanks' balanced salt solution (HBSS) buffer containing 0.1% BSA (pH 7.4) and incubated at 37°C for 20 min. Artepillin C and drupanin dissolved in DMSO (10 mM) were added to the transport buffer (HBSS containing 10 mM HEPES, 0.2% glucose, 0.1% BSA, pH 7.4) to a final concentration of 10 μM and then loaded into the apical or basolateral chamber. After 120 min of incubation, 150 μL of the aliquots were collected from the donor and receiver chambers and mixed with an equal volume of 50% methanol. After centrifugation at 3000 rpm for 10 min at 4°C, the supernatants were filtered and subjected to LC–MS/MS analysis.
(§2) The in vitro samples were analyzed using HPLC (LC‐20A, Shimadzu, Kyoto, Japan) with a reversed‐phase column (Inertsil ODS‐3, 2.1 × 33 mm, ID. 3 μm, GL Sciences, Tokyo, Japan) held at 40°C. The mobile solvents used were water with 10 mM ammonium acetate (pH 4.0, A) and methanol (B) pumped at a flow rate of 0.4 mL/min. The following gradient was employed: 10%–90% B (0–0.5 min), 90% B (0.5–2.5 min), and 10% B (2.5–4 min). The eluent was monitored using a triple quadrupole mass spectrometer (API 4000, AB Sciex, Framingham, MA, USA) incorporating an electrospray ion source (ESI) operating in the multiple reaction monitoring mode. The ESI source was operated in negative ionization mode at 600°C with a spray voltage of −4.5 kV. The curtain gas (nitrogen), collision gas (nitrogen), nebulizer gas (whole air), and drying gas (whole air) were set at 40, 5, 50, and 70 psi, respectively. […] Artepillin C and drupanin were diluted in 50% methanol to concentrations of 1.6, 3.2, 8, 40, 200, 1000, and 2000 nM and were used as external standards. Sulfaphenazole (0.2 μM) was used as an internal standard.
(§3) The apparent permeability coefficients (Papp) for both directions, from the apical side to the basolateral side (A to B) and from the basolateral side to the apical side (B to A) in the cell monolayer, were calculated using the following equation: (1) Papp=dQ/dt/A×C0 where dQ/dt is the permeation rate (nmol/s), A is the membrane area (cm^2), and C0 is the initial concentration of the compound in the donor compartment (nM). The efflux ratios (ER) in the B‐to‐A and A‐to‐B directions were determined using the following equation: (2) ER=PappBtoA/PappAtoB
(§4) Net flux ratios were calculated by dividing the ER obtained from MDCK II‐MDR1 (or BCRP) cells by that obtained from the parent MDCK II cells.

In series [2] the target is T2, multidrug resistance 1 (MDR1), P‐gp (Homo sapiens, UniProt P08183).
T2 construct: host or cells: MDCK II (Madin-Darby canine kidney) cells overexpressing MDR1
Nature of the series: Bidirectional transport assay across MDCK II-MDR1 cell monolayer. It is filed as in vitro ADME. The settings on record: for Net flux ratio: ER of MDCK II‐MDR1 divided by ER of parent MDCK II, >2 = transporter-mediated efflux. Here is the method:
as §1, §2, §3, §4

[3] abbreviates: 10 μM, 120 min, mean ± SE, n = 2.
The mark [4] stands for this setting: 10 μM, Papp B to A / Papp A to B.

On to `CC(C)=CCc1cc(/C=C/C(=O)O)ccc1O` [drupanin], for which the figures for the Net flux ratio in series [1] and in series [2] were 20.4 and 0.9, respectively. Besides, the “substrate of BCRP (in words)” value in series [1] is recorded as “substrates”.
`CC(C)=CCc1cc(/C=C/C(=O)O)cc(CC=C(C)C)c1O` [artepillin C]: in series [1] (setting [3]), the “Papp MDCK II‐BCRP A to B” value is given as 9.7 ± 0.2 10^−6 cm/s and the “Papp MDCK II‐BCRP B to A” value is reported as 16.0 ± 0.01 10^−6 cm/s. Further, the “Flux ratio (MDCK II‐BCRP) (efflux ratio, ER)” value in series [1] (setting [4]) worked out at 1.6. Further, in series [1], the Net flux ratio worked out at 2.0 and the “substrate of BCRP (in words)” value is recorded as “substrates”. Also, in series [2] (setting [3]), the “Papp MDCK II‐MDR1 A to B” value is 13.3 ± 0.7 10^−6 cm/s and the “Papp MDCK II‐MDR1 B to A” value was 11.4 ± 0.8 10^−6 cm/s. In addition, the “Flux ratio (MDCK II‐MDR1) (efflux ratio, ER)” value in series [2] (setting [4]) is 0.9. Moreover, in series [2], the Net flux ratio is given as 1.1.
